Assay results published in patent publication US11266701B2, “Synergistic combinations of caffeine, ginkgo biloba and beta-phenylethylamine” (TRINUTRA LTD., priority 2016, dated 2022).

System: murine macrophage cell line, RAW 264.7
Assay: Nitric oxide (NO) release from LPS-induced RAW 264.7 cells (Griess Reagent System)
Assay type: cell-based
Procedure: 10^5 cells from a murine macrophage cell line, RAW 264.7, were seeded in 96-well plates in a medium containing 1% FBS, 1% Glutamine and 1% Pen/strep in DMEM. […] In addition, positive control cells were treated with 20 μM dexamethasone. Nitric oxide (NO) release was tested after incubation at 37° C., 5% CO2 using the Griess Reagent System. The method is based on the chemical diazotization reaction that was originally described by Griess in 1879, which uses sulfanilamide and N-1-napthylethylenediamine dihydrochloride (NED) under acidic (phosphoric acid) conditions. This system detects NO2^− in a variety of biological and experimental liquid matrices such as tissue culture medium that was tested in this study.

Row | SMILES | effect on NO release (FIG. 1: 40 μg/ml caffeine tested separately, LPS 5 ng/ml, 22 hours) | effect on NO release (FIG. 2: 40 μg/ml caffeine tested separately, LPS 5 ng/ml, 22 hours) | effect on NO release (FIG. 3: 390 μg/ml caffeine, 40 μg/ml Ginkgo biloba, tested separately) | NO release as % of LPS-only negative control (FIG. 1: 240 μg/ml Ginkgo biloba, 500 μg/ml PEA, tested separately, LPS 5 ng/ml, 22 hours) | NO release as % of LPS-only negative control (FIG. 2: 240 μg/ml Ginkgo biloba, 120 μg/ml PEA, tested separately, LPS 5 ng/ml, 22 hours) | reduction in NO release (FIG. 3: 630 μg/ml PEA alone, C+G+P = 390 μg/ml caffeine + 40 μg/ml Ginkgo biloba + 630 μg/ml PEA) | effect on NO release (FIG. 4: 630 μg/ml PEA alone, binary combination 390 μg/ml caffeine + 630 μg/ml PEA) | NO release inhibition (FIG. 5: 40 μg/ml Ginkgo biloba, 630 μg/ml PEA, separately and as binary combination) | effect on NO release compared with dexamethasone positive control (FIGS. 3-6: 390 μg/ml caffeine, 40 μg/ml Ginkgo biloba, 630 μg/ml PEA)
1 | Cn1c(=O)c2c(ncn2C)n(C)c1=O [caffeine] | essentially without effect | essentially without effect | slight reduction | – | – | – | – | – | –
2 | NCCc1ccccc1 [PEA, β-phenylethylamine] | – | – | – | ~85% | 95% | 20% | significant reduction | a certain degree of NO release inhibition | considerably less than that seen in the positive control
